Where “and” joins values, the source holds several entries; their conditions need not be identical. Equal values may be shown once.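 Grown in 96-well plates, cells were treated for 48 hours with each compound at five concentrations. Insufficient inhibition: endpoint recorded as highest concentration tested. GI50 = concentration required for 50% inhibition of growth. The concentration for full growth arrest is given as TGI.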
Columns and labels:
Assay in all cases: NCI anticancer screen, dose series, 48 h
786-0 renal = system: 786-0 renal
A498 renal = system: A498 renal
A549 NSCLC = system: A549 NSCLC
ACHN renal = system: ACHN renal
CAKI-1 renal = system: CAKI-1 renal
CCRF-CEM leukemia = system: CCRF-CEM leukemia
COLO 205 colon = system: COLO 205 colon
DLD-1 colon = system: DLD-1 colon
DMS 114 small cell lung = system: DMS 114 small cell lung
DMS 273 small cell lung = system: DMS 273 small cell lung
EKVX NSCLC = system: EKVX NSCLC
HCT-15 colon = system: HCT-15 colon
HOP-62 NSCLC = system: HOP-62 NSCLC
HOP-92 NSCLC = system: HOP-92 NSCLC
HT29 colon = system: HT29 colon
IGROV1 ovarian = system: IGROV1 ovarian
K-562 leukemia = system: K-562 leukemia
KM12 colon = system: KM12 colon
KM20L2 colon = system: KM20L2 colon
LOX IMVI melanoma = system: LOX IMVI melanoma
M14 melanoma = system: M14 melanoma
M19-MEL melanoma = system: M19-MEL melanoma
MALME-3M melanoma = system: MALME-3M melanoma
MOLT-4 leukemia = system: MOLT-4 leukemia
NCI-H226 lung = system: NCI-H226 lung
NCI-H23 lung = system: NCI-H23 lung
NCI-H460 lung = system: NCI-H460 lung
NCI-H522 lung = system: NCI-H522 lung
OVCAR-3 ovarian = system: OVCAR-3 ovarian
OVCAR-4 ovarian = system: OVCAR-4 ovarian
OVCAR-8 ovarian = system: OVCAR-8 ovarian
RPMI-8226 leukemia = system: RPMI-8226 leukemia
RXF 393 renal = system: RXF 393 renal
RXF-631 renal = system: RXF-631 renal
SF-268 CNS = system: SF-268 CNS
SF-295 CNS = system: SF-295 CNS
SF-539 CNS = system: SF-539 CNS
SK-MEL-2 melanoma = system: SK-MEL-2 melanoma
SK-MEL-28 melanoma = system: SK-MEL-28 melanoma
SK-MEL-5 melanoma = system: SK-MEL-5 melanoma
SK-OV-3 ovarian = system: SK-OV-3 ovarian
SN12C renal = system: SN12C renal
SNB-75 CNS = system: SNB-75 CNS
SNB-78 CNS = system: SNB-78 CNS
SR leukemia = system: SR leukemia
SW-620 colon = system: SW-620 colon
TK-10 renal = system: TK-10 renal
UACC-257 melanoma = system: UACC-257 melanoma
UACC-62 melanoma = system: UACC-62 melanoma
UO-31 renal = system: UO-31 renal
XF 498 CNS = system: XF 498 CNS
HCC-2998 colon = system: HCC-2998 colon
HCT-116 colon = system: HCT-116 colon
HL-60(TB) leukemia = system: HL-60(TB) leukemia
HOP-18 NSCLC = system: HOP-18 NSCLC
LXFL 529 NSCLC = system: LXFL 529 NSCLC
OVCAR-5 ovarian = system: OVCAR-5 ovarian
SNB-19 CNS = system: SNB-19 CNS
U251 CNS = system: U251 CNS

O=C1Nc2cc([N+](=O)[O-])c(Br)cc2C1=O
TGI (786-0 renal): 35.8 µM
TGI (A498 renal): > 100 µM
TGI (A549 NSCLC): > 100 µM
TGI (ACHN renal): 35.3 µM
TGI (CAKI-1 renal): 47.5 µM
TGI (CCRF-CEM leukemia): 32.1 µM
TGI (COLO 205 colon): 35 µM
TGI (DLD-1 colon): 46.5 µM
TGI (DMS 114 small cell lung): 33.5 µM
TGI (DMS 273 small cell lung): 37.3 µM
TGI (EKVX NSCLC): 47.4 µM
TGI (HCT-15 colon): 37.1 µM
TGI (HOP-62 NSCLC): 75.1 µM
TGI (HOP-92 NSCLC): 43.1 µM
TGI (HT29 colon): 41.9 µM
TGI (IGROV1 ovarian): 32.7 µM
TGI (K-562 leukemia): 55.7 µM
TGI (KM12 colon): > 100 µM
TGI (KM20L2 colon): 31.7 µM
TGI (LOX IMVI melanoma): 35.2 µM
TGI (M14 melanoma): 30.1 µM
TGI (M19-MEL melanoma): 31.6 µM
TGI (MALME-3M melanoma): 46.4 µM
TGI (MOLT-4 leukemia): 43 µM
TGI (NCI-H226 lung): 76.4 µM
TGI (NCI-H23 lung): 31.9 µM
TGI (NCI-H460 lung): > 100 µM
TGI (NCI-H522 lung): 30.3 µM
TGI (OVCAR-3 ovarian): 32.1 µM
TGI (OVCAR-4 ovarian): 30.5 µM
TGI (OVCAR-8 ovarian): 31.6 µM
TGI (RPMI-8226 leukemia): 43.3 µM
TGI (RXF 393 renal): 39.4 µM
TGI (RXF-631 renal): 33.2 µM
TGI (SF-268 CNS): 44.1 µM
TGI (SF-295 CNS): 14.3 µM
TGI (SF-539 CNS): 41 µM
TGI (SK-MEL-2 melanoma): 71.9 µM
TGI (SK-MEL-28 melanoma): 36.3 µM
TGI (SK-MEL-5 melanoma): 60.7 µM
TGI (SK-OV-3 ovarian): > 100 µM
TGI (SN12C renal): 32.7 µM
TGI (SNB-75 CNS): 52 µM
TGI (SNB-78 CNS): 50.1 µM
TGI (SR leukemia): 37.4 µM
TGI (SW-620 colon): 38.6 µM
TGI (TK-10 renal): > 100 µM
TGI (UACC-257 melanoma): 35.1 µM
TGI (UACC-62 melanoma): 42.4 µM
TGI (UO-31 renal): 36.2 µM
TGI (XF 498 CNS): 24.6 µM

CCCc1c(C(=O)OCC)[nH]c(-c2ccc(-c3[nH]c(C(=O)OCC)c(CCC)c3C(=O)OCC)s2)c1C(=O)OCC
TGI (786-0 renal): > 100 µM
TGI (A498 renal): > 100 µM
TGI (A549 NSCLC): > 100 µM
TGI (ACHN renal): > 100 µM
TGI (CAKI-1 renal): > 100 µM
TGI (CCRF-CEM leukemia): > 100 µM
TGI (COLO 205 colon): > 100 µM
TGI (DLD-1 colon): > 100 µM
TGI (DMS 114 small cell lung): > 100 µM
TGI (DMS 273 small cell lung): > 100 µM
TGI (EKVX NSCLC): > 100 µM
TGI (HCC-2998 colon): > 100 µM
TGI (HCT-116 colon): > 100 µM
TGI (HCT-15 colon): > 100 µM
TGI (HL-60(TB) leukemia): > 100 µM
TGI (HOP-18 NSCLC): > 100 µM
TGI (HOP-92 NSCLC): 85.2 µM
TGI (HT29 colon): > 100 µM
TGI (IGROV1 ovarian): > 100 µM
TGI (K-562 leukemia): > 100 µM
TGI (KM12 colon): > 100 µM
TGI (KM20L2 colon): > 100 µM
TGI (LOX IMVI melanoma): 66.3 µM
TGI (LXFL 529 NSCLC): > 100 µM
TGI (M14 melanoma): > 100 µM
TGI (M19-MEL melanoma): > 100 µM
TGI (MALME-3M melanoma): > 100 µM
TGI (MOLT-4 leukemia): > 100 µM
TGI (NCI-H226 lung): > 100 µM
TGI (NCI-H23 lung): > 100 µM
TGI (NCI-H460 lung): > 100 µM
TGI (NCI-H522 lung): > 100 µM
TGI (OVCAR-3 ovarian): > 100 µM
TGI (OVCAR-4 ovarian): > 100 µM
TGI (OVCAR-5 ovarian): > 100 µM
TGI (OVCAR-8 ovarian): > 100 µM
TGI (RPMI-8226 leukemia): > 100 µM
TGI (RXF 393 renal): 28.5 µM
TGI (SF-268 CNS): > 100 µM
TGI (SF-295 CNS): > 100 µM
TGI (SF-539 CNS): > 100 µM
TGI (SK-MEL-2 melanoma): 57.2 µM
TGI (SK-MEL-28 melanoma): > 100 µM
TGI (SK-MEL-5 melanoma): > 100 µM
TGI (SK-OV-3 ovarian): 98.6 µM
TGI (SN12C renal): > 100 µM
TGI (SNB-19 CNS): > 100 µM
TGI (SNB-75 CNS): 58 µM
TGI (SNB-78 CNS): > 100 µM
TGI (SR leukemia): > 100 µM
TGI (SW-620 colon): > 100 µM
TGI (TK-10 renal): > 100 µM
TGI (U251 CNS): > 100 µM
TGI (UACC-257 melanoma): > 100 µM
TGI (UACC-62 melanoma): > 100 µM
TGI (UO-31 renal): > 100 µM
TGI (XF 498 CNS): > 100 µM

Clc1cccc(N2CCN(CCCN3CCc4c([nH]c5ccccc45)C3c3cccnc3)CC2)c1 (centres undefined)
GI50 (786-0 renal): 7.08 µM
TGI (786-0 renal): 20.2 µM
TGI (A498 renal): 27.2 µM
GI50 (A549 NSCLC): 16.1 µM
TGI (A549 NSCLC): 36.9 µM
TGI (ACHN renal): 31.3 µM
TGI (CAKI-1 renal): 25.7 µM
GI50 (CCRF-CEM leukemia): 11.9 µM
TGI (CCRF-CEM leukemia): > 100 µM
GI50 (COLO 205 colon): 5.42 µM
TGI (COLO 205 colon): 21.9 µM
TGI (DLD-1 colon): 27 µM
GI50 (DMS 273 small cell lung): 12.6 µM
TGI (DMS 273 small cell lung): 27.9 µM
TGI (EKVX NSCLC): 35.1 µM
GI50 (HCC-2998 colon): 3.06 µM
TGI (HCC-2998 colon): 11.9 µM
GI50 (HCT-116 colon): 6.97 µM
TGI (HCT-116 colon): 24.9 µM
TGI (HCT-15 colon): 21.8 µM
GI50 (HL-60(TB) leukemia): 4.63 µM
TGI (HL-60(TB) leukemia): > 100 µM
TGI (HOP-18 NSCLC): 36 µM
TGI (HOP-62 NSCLC): 32.7 µM
GI50 (HOP-92 NSCLC): 12.8 µM
TGI (HOP-92 NSCLC): 31.3 µM
GI50 (HT29 colon): 3.18 µM
TGI (HT29 colon): 14.2 µM
TGI (IGROV1 ovarian): > 100 µM
GI50 (K-562 leukemia): 5.06 µM
TGI (K-562 leukemia): > 100 µM
TGI (KM20L2 colon): 18.8 µM
TGI (LOX IMVI melanoma): 37.9 µM
GI50 (LXFL 529 NSCLC): 11.3 µM
TGI (LXFL 529 NSCLC): 24.4 µM
GI50 (M14 melanoma): 2.47 µM
TGI (M14 melanoma): 4.96 µM and 5.78 µM
TGI (M19-MEL melanoma): 23.4 µM
GI50 (MALME-3M melanoma): 5.78 µM
TGI (MALME-3M melanoma): 8.97 µM and 21.6 µM
GI50 (MOLT-4 leukemia): 5.33 µM
TGI (MOLT-4 leukemia): 39.8 µM
TGI (NCI-H226 lung): 35.8 µM
TGI (NCI-H23 lung): 27 µM
GI50 (NCI-H460 lung): 7.85 µM
TGI (NCI-H460 lung): 23.7 µM
TGI (NCI-H522 lung): 25.7 µM
GI50 (OVCAR-3 ovarian): 9.24 µM
TGI (OVCAR-3 ovarian): 22.7 µM
TGI (OVCAR-4 ovarian): 25.1 µM
GI50 (OVCAR-5 ovarian): 8.66 µM
TGI (OVCAR-5 ovarian): 23.9 µM
TGI (OVCAR-8 ovarian): 26 µM
GI50 (RXF 393 renal): 11.5 µM
TGI (RXF 393 renal): 31 µM
GI50 (RXF-631 renal): 19.5 µM
TGI (RXF-631 renal): > 100 µM
GI50 (SF-539 CNS): 11.7 µM
TGI (SF-539 CNS): 32.3 µM
TGI (SK-MEL-2 melanoma): 24.3 µM
GI50 (SK-MEL-28 melanoma): 5.58 µM
TGI (SK-MEL-28 melanoma): 20.4 µM
GI50 (SK-MEL-5 melanoma): 6.79 µM
TGI (SK-MEL-5 melanoma): 24.9 µM
TGI (SK-OV-3 ovarian): 32.2 µM
TGI (SN12C renal): 30.3 µM
TGI (SNB-19 CNS): > 100 µM
TGI (SNB-75 CNS): 26.7 µM
GI50 (SNB-78 CNS): 2.88 µM
TGI (SNB-78 CNS): 9.39 µM
GI50 (SR leukemia): 4.58 µM
TGI (SR leukemia): 7.34 µM and 24.6 µM
TGI (SW-620 colon): 38.1 µM
TGI (U251 CNS): 23.9 µM
TGI (UACC-257 melanoma): 12.1 µM
TGI (UO-31 renal): 18.5 µM

Source: PubChem BioAssay (NCI)
